Laboratory results from patent US6689806B1, “Indolinone compounds as kinase inhibitors” (Sugen, Inc., priority 1999, dated 2004).
Read-outs that look alike come from different tables or passages of the source.

Assays:
[1] = system: A431; assay: A431 growth; assay type: cell-based; conditions: Homo sapiens, A-431, A431 cells
[2] = target: T1, Her2 (Homo sapiens, UniProt P04626); assay: HER-2 ELISA: EGF receptor-HER2 chimeric receptor assay in whole cells (HER2 kinase); assay type: cell-based; conditions: NIH3T3 cells with EGFR/HER2 chimeric receptor, phosphotyrosine ELISA
T1 construct: fused on or other part: P00533 (Epidermal growth factor receptor)
Procedure: Assay 1: EGF Receptor-HER2 Chimeric Receptor Assay In Whole Cells.
HER2 kinase activity in whole EGFR-NIH3T3 cells was measured as described below:
1. An NIH3T3 cell line overexpressing a chimeric receptor containing the EGFR extracellular domain and intracellular HER2 kinase domain can be used for this assay.
3. Resuspend cells in seeding medium (DMEM, 0.5% bovine serum), and count the cells using trypan blue. Viability above 90% is acceptable. Seed cells in DMEM medium (0.5% bovine serum) at a density of 10,000 cells per well, 100 μL per well, in a 96 well microtiter plate. Incubate seeded cells in 5% CO2 at 37° C. for about 40 hours.
1. Check seeded cells for contamination using an inverted microscope. Dilute drug stock (10 mg/mL in DMSO) 1:10 in DMEM medium, then transfer 5 μL to a TBST well for a final drug dilution of 1:200 and a final DMSO concentration of 1%. Control wells receive DMSO alone. Incubate in 5% CO2 at 37° C. for two hours.
2. Prepare EGF ligand: dilute stock EGF in DMEM so that upon transfer of 10 μL dilute EGF (1:12 dilution), 100 nM final concentration is attained.
4. After 120 minutes incubation with drug, add prepared […] ligand to cells, 10 μL per well, to a final concentration of 100 nM. Control wells receive DMEM alone. Incubate, shaking, at room temperature, for 5 minutes.
5. Remove drug, EGF, and DMEM. Wash cells twice with PBS. Transfer HNTG* to cells, 100 μL per well. Place on ice for 5 minutes. Meanwhile, remove blocking buffer from other ELISA plate and wash with TBST as described above.
6. With a pipette tip securely fitted to a micropipettor, scrape cells from plate and homogenize cell material by repeatedly aspirating and dispensing the HNTG* lysis buffer. Transfer lysate to a coated, blocked, and washed ELISA plate. Incubate shaking at room temperature for one hour.
7. Remove lysate and wash 4 times with TBST. Transfer freshly diluted anti-Ptyr antibody to ELISA plate at 100 μL per well. Incubate shaking at room temperature for 30 minutes in the presence of the anti-Ptyr antiserum (1:3000 dilution in TBST).
8. Remove the anti-Ptyr antibody and wash 4 times with TBST. Transfer the freshly diluted TAGO anti-rabbit IgG antibody to the ELISA plate at 100 μL per well. Incubate shaking at room temperature for 30 minutes (anti-rabbit IgG antibody: 1:3000 dilution in TBST).
9. Remove TAGO detection antibody and wash 4 times with TBST. Transfer freshly prepared ABTS/H2O2 solution to ELISA plate, 100 μL per well. Incubate shaking at room temperature for 20 minutes. (ABTS/H2O2 solution: 1.0 μL 30% H2O2 in 10 mL ABTS stock).
10. Stop reaction by adding 50 μL 5N H2SO4 (optional), and determine O.D. at 410 nm.
11. The maximal phosphotyrosine signal is determined by subtracting the value of the negative controls from the positive controls. The percent inhibition of phosphotyrosine content for extract-containing wells is then calculated, after subtraction of the negative controls.

[3] = target: EGFR (Homo sapiens, UniProt P00533); assay: Biochemical EGFR assay (ELISA); design: A431 cell lysate; endogenous in cells; host or cells: A431; conditions: read-out: EGFr biochem IC50
Procedure: This assay measures the in vitro kinase activity of EGFR using ELISA.
1. Coat Coming 96 well ELISA plates with 0.5 μg SUMOl in 100 μL PBS per well, store overnight at 4° C.
5. Dilute lysate in PBS (7 μg lysate/100 μL PBS).
(§1) 6. Add 100 μL of diluted lysate to each well. Shake at room temperature for 60 min.
8. Add 120 μL TBS to ELISA plate containing captured EGFR.
9. Dilute test compound 1:10 in TBS in 96-well polypropylene plates (ie. 10 μL compound+90 μL TBS).
10. Add 13.5 μL diluted test compound to ELISA plate.
13. After 5 minutes, stop reaction by adding 16.5 μL of 200 mM EDTA (pH 8.0) to each well, shaking continuously. After the EDTA has been added, shake for 1 mm.
(§2) 15. Add 100 μL anti-phosphotyrosine (1:3000 dilution in TBST) per well. Incubate 30-45 min. at room temperature, with shaking.
(§3) 17. Add 100 μL Biosource Goat anti-rabbit IgG peroxidase conjugate (1:2000 dilution in TBST) to each well. Incubate 30 min. at room temperature, with shaking.
(§4) 19. Add 100 μL of ABTS/H2O2 solution to each well.
22. Read assay on Dynatech MR7000 ELISA reader. Test Filter: 410 nM Reference Filter: 630 Nm.

[4] = system: SKOV3; assay: SKOV3 growth; assay type: cell-based; conditions: Homo sapiens, SK-OV-3, SKOV3 cells
[5] = target: PDGFR (Homo sapiens, UniProt P09619); assay: Biochemical PDGFR assay (ELISA); design: expressed in transfected cells; host or cells: NIH 3T3; conditions: read-out: PDGFr biochem IC50
Procedure: This assay measures the in vitro kinase activity of PDGFR using ELISA.
6. PDGFR-β expressing NlH 3T3 cell lysate.
1. Coat Corning 96 well ELISA plates with 0.5 μg 28D4C10 in 100 μL PBS per well, store overnight at 4° C.
5. Dilute lysate in HNTG (10 μg lysate/100 μL HNTG)
as §1
8. Add 80 μL working kinase buffer mix to ELISA plate containing captured PDGFR.
9. Dilute test compound 1:10 in TBS in 96-well polypropylene plates (i.e., 10 μL compound+90 μL TBS).
10. Add 10 μL diluted test compound to ELISA plate.
11. Incubate for 30 minutes while shaking at room temperature.
12. Add 10 μL ATP directly to all wells except negative control well (final well volume should be approximately 100 μL with 20 μM ATP in each well.) Incubate 30 minutes while shaking.
13. After 30 minutes, stop reaction by adding 10 μL of 200 mM EDTA (pH 8.0) to each well.
as §2, §3, §4
22. Read assay on Dynatech MR7000 ELISA reader: test filter: 410 nM, reference filter: 630 nM.

[6] = target: T1, Her2; assay: EGF-induced Her2-driven BrdU incorporation; assay type: cell-based; conditions: Table 7; 3T3 cells with EGF-R/Her2 chimeric receptor, EGF 2 nM; read-out: BrdU DNA syn. HER2 IC50
Procedure: The cellular/biologic assays described herein measure the amount of DNA made in response to activation of a test kinase, which is a general measure of a proliferative response. The general procedure for this assay is as follows: a compound is introduced to cells expressing the test kinase, either naturally or recombinantly, for some period of time after which, if the test kinase is a receptor, a ligand known to activate the receptor is added. After incubation at least overnight, a DNA labeling reagent such as Bromodeoxy-uridine (BrdU) or 3H-thymidine is added. The amount of labeled DNA is detected with either an anti-BrdU antibody or by measuring radioactivity and is compared to control cells not contacted with a test compound.
EGF-Induced Her2-Driven BrdU Incorporation
(8) 3T3 cell line engineered to express a chimeric receptor having the extra-cellular domain of EGF-R and the intra-cellular domain of Her2.
(1) Cells are seeded at 8000 cells/well in DMEM, 10% CS, 2 mM Gln in a 96-well plate. Cells are incubated overnight at 37° C. in 5% CO2.
(2) After 24 hours, the cells are washed with PBS, and then are serum starved in serum free medium (0% CS DMEM with 0.1% BSA) for 24 hours.
(3) On day 3, ligand (EGF=2 nM, prepared in DMEM with 0.1% BSA) and test compounds are added to the cells simultaneously. The negative control wells receive serum free DMEM with 0.1% BSA only; the positive control cells receive the ligand (EGF) but no test compound. Test compounds are prepared in serum free DMEM with ligand in a 96 well plate, and serially diluted for 7 test concentrations.
(4) After 20 hours of ligand activation, diluted BrdU labeling reagent (1:100 in DMEM, 0.1% BSA) is added and the cells are incubated with BrdU (final concentration=[…]) for 1.5 hours.
(10) The absorbance of the samples are measured at 410 nm (in “dual wavelength” mode with a filter reading at 490 nm, as a reference wavelength) on a Dynatech ELISA plate reader.

[7] = Table 5, in vitro kinase activity
[8] = Table 7, in vitro kinase activity

Chain of PDGFR (P09619 33-1106): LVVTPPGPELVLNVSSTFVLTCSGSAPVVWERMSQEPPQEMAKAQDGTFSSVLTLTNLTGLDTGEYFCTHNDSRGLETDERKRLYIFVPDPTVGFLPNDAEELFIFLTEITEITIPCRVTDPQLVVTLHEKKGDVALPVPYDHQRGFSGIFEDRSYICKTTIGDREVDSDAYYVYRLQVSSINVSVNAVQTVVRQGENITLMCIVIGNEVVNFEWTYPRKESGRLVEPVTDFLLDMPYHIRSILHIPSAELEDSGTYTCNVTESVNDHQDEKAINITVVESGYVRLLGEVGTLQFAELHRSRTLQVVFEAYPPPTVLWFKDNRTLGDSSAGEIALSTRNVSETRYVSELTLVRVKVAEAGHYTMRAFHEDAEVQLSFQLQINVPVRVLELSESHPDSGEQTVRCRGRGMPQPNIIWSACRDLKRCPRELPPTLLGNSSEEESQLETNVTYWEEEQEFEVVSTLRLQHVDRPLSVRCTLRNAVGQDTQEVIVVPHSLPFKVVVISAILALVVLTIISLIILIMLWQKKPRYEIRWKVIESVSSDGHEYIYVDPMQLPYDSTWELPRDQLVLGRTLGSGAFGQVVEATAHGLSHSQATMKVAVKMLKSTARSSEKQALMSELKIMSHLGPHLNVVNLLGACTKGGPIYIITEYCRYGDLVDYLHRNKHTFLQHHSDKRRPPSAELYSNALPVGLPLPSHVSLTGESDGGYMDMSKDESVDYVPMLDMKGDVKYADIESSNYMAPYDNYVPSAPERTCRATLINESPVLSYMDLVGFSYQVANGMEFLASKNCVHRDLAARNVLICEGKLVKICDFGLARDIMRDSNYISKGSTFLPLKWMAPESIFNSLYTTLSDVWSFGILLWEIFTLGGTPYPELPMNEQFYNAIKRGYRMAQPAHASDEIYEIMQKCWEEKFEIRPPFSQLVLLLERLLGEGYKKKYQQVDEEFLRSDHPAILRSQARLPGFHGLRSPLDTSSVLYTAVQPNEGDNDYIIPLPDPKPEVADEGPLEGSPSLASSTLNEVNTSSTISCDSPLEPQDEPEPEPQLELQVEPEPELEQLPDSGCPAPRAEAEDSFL
Chain of EGFR (P00533 25-1210): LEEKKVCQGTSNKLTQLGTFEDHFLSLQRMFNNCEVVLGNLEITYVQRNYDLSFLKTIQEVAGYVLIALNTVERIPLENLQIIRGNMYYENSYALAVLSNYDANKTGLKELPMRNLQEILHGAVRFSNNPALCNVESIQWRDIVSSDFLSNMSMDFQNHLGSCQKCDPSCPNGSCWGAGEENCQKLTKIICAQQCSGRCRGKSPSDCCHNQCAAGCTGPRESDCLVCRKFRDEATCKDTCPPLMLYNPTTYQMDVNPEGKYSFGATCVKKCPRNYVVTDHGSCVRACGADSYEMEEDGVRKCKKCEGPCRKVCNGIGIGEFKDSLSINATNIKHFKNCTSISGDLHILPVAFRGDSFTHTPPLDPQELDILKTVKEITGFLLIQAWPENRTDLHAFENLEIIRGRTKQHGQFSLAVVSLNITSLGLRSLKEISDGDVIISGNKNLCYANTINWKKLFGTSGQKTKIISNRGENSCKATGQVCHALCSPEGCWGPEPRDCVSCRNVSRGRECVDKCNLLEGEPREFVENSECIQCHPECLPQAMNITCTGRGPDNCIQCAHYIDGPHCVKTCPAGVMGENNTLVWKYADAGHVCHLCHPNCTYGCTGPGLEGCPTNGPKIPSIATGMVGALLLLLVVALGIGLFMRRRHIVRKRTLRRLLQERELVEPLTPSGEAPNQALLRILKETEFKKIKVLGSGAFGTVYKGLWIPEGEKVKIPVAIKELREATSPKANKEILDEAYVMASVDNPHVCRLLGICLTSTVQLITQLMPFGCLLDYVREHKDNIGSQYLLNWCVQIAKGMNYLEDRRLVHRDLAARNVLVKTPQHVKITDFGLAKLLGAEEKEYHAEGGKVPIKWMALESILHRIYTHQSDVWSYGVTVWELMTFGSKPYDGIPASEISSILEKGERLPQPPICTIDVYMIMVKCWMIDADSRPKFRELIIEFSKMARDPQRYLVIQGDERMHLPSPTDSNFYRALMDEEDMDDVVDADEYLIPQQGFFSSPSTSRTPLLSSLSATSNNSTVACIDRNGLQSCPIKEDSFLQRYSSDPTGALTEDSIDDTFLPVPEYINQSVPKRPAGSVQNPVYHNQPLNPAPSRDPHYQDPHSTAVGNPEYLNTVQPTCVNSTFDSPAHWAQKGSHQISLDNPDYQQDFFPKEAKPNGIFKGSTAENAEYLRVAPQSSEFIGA
T1 sequence (P04626 676-1255 limits assumed): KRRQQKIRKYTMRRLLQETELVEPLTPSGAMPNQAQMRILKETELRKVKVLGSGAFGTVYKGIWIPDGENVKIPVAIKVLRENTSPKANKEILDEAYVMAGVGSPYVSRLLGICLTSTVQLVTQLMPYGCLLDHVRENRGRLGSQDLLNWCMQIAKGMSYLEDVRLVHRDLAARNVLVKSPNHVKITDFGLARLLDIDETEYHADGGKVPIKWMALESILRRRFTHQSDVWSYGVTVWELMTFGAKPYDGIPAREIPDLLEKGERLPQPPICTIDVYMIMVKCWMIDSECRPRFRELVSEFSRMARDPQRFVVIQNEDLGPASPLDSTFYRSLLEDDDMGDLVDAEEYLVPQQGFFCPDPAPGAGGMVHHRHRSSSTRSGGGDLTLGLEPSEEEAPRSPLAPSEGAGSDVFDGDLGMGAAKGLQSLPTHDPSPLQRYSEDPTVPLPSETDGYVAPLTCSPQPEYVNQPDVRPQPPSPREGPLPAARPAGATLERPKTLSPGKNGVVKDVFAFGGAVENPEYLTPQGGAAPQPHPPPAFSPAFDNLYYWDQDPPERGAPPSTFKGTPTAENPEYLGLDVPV

COc1cc(C)c(CC2C(=O)Nc3ccccc32)cc1C(C)C (centres unmarked) [AAI-9, 3-(5-Isopropyl-4-methoxy-2-methylbenzyl)-1,3-dihydroindol-2-one]
IC50 ([1]; Table 5): 5.25 µM
IC50 ([2]; Table 5): > 100 µM
IC50 [3, 7]: > 100 µM
IC50 ([4]; Table 5): 5.2 µM
IC50 [5, 7]: > 100 µM

O=C1Nc2cccc(CCO)c2C1Cc1ccccc1 (centres unmarked) [AAI-12, 3-Benzyl-4-(2-hydroxyethyl)-1,3-dihydroindol-2-one]
IC50 ([1]; Table 5): > 50 µM
IC50 ([2]; Table 5): > 100 µM
IC50 [3, 7]: > 100 µM
IC50 ([4]; Table 5): > 50 µM
IC50 [5, 7]: > 100 µM

O=C1Nc2cccc(CCO)c2/C1=C/c1ccc2[nH]ccc2c1 [IN-007, 4-(2-Hydroxy-ethyl)-3-(1H-indol-5-ylmethylene)-1,3-dihydro-indol-2-one]
IC50 ([1]; Table 7): 4.2 µM
IC50 ([2]; Table 7): 22.7 µM
IC50 [3, 8]: > 100 µM
IC50 ([4]; Table 7): 9.7 µM
IC50 [5, 8]: > 100 µM

Cc1[nH]c(/C=C2\C(=O)Nc3cccc(CCO)c32)c(C)c1CCCN(C)C [IN-009, 3-[4-(3-Dimethylamino-propyl)-3,5-dimethyl-1H-pyrrol-2-ylmethylene]-4-(2-hydroxy-ethyl)-1,3-dihydro-indol-2-one]
IC50 ([1]; Table 7): 13.6 µM
IC50 ([2]; Table 7): > 100 µM
IC50 [6]: 4.2 µM
IC50 [3, 8]: > 100 µM
IC50 ([4]; Table 7): 25.2 µM
